Legend:
Neutrophil elastase = target: T1, Neutrophil elastase (Homo sapiens, UniProt P08246); test: Inhibitory activity against human Elastase […]
T1 sequence (P08246 whole entry): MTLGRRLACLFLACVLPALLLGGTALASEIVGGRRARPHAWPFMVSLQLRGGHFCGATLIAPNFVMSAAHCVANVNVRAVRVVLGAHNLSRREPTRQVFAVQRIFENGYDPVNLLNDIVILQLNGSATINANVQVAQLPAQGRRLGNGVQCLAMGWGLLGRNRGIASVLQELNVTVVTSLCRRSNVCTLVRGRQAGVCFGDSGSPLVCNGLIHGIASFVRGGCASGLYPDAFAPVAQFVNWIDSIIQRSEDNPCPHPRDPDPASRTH

MRC5 [1] = test: Inhibitory activity against HCMV in a plaque assay(strain in MRC-5 cells); format: functional, cell-based; conditions: Homo sapiens
MRC5 [2] = test: Inhibitory activity against HCMV protease in a plaque assay (strain AD169 in MRC-5 cells); format: functional, cell-based; conditions: Homo sapiens
[3] = system: HCMV protease (assemblin, Human betaherpesvirus 5); test: Inhibitory activity against HCMV protease by SPA assay at 150 uM concentration

CC(=O)C(C(=O)OCc1ccccc1)C1=C(Cl)C(=O)c2ccccc2C1=O (centres undefined)
IC50 (Neutrophil elastase): 30 µM

CC(=O)C(C(=O)OC(C)C)C1=C(Cl)C(=O)c2ccccc2C1=O (centres undefined)
IC50 (MRC5 [1]): 13 µM

CCOC(=O)C(C(C)=O)C1=C(Cl)C(=O)c2ccccc2C1=O (centres undefined)
IC50 (MRC5 [2]): 10 µM

CC1(C)CC(=O)C(C2=C(O)C(=O)c3ccccc3C2=O)C(=O)C1
inhibition [3]: 11%

Reference: ChEMBL document CHEMBL1132003, “2-chloro-3-substituted-1,4-naphthoquinone inactivators of human cytomegalovirus protease” (Bioorg Med Chem Lett, 1999)
